Measured values as given in patent US20160256398A1 (H. Lundbeck A/S, priority 2009, published 2016).
“Also recorded” adds a separate entry of the source.

What was measured:
[1] = 5-way crossover study in healthy volunteers: adverse events by administration form; assay type: in vivo, human
Description: (§1) 23 subject (12 men and 11 women) participated in the trial; due to drop-outs however, not all 23 subjects received all five treatments—see below for details.
The proximal small bowel is approximately the first meter of the jejunum, and the distal small bowel is approximately the last meter of the ileum, including terminal ileum up to the ileo-caecal junction.
The Enterion™ capsule allows targeted delivery of an active substance into any region of the GI tract. The capsule contains a drug reservoir and a separate compartment for a radioactive tracer. The floor of the reservoir acts a piston which is held back against a spring by a polymer filament. By means of gamma scintigraphy (an imaging technique) the exact position of the capsule in the GI tract can be determined real-time. When the capsule has reached its desired position in the GI tract, a magnetic field is applied which causes an antenna in the capsule all to heat up. The heated antenna is in contact with the polymer filament which softens and eventually breaks which sets the piston (reservoir floor) free and rapidly releases the drug. The Enterion™ capsule is available from Partner Tech, UK.
(§2) Blood samples were obtained at regular intervals 240 hours post-dosing of the IR tablet, post-start of the infusion and post-activation of the Enterion™ capsule. […] Additionally, adverse events were recorded. Food (soup) was provided 4 hours post-dose and dinner 10 hours post-dose.
All 23 subjects received treatments A and B; 22 subjects received treatment C; 20 subjects received treatment D; and 19 received treatment E.
The table below summarises the adverse events recorded during the course of the trial.

[2] = tested on: acetylcholine, norepinephrine, dopamine, and serotonin in brain regions associated with mood regulation; conditions: extracellular levels in rat brains; cited from earlier work
[3] = cited from earlier work
[4] = 5-way crossover study in healthy volunteers: plasma concentration-time profile; assay type: in vivo, human
Protocol: as §1, §2
The plasma concentration time profiles are depicted in FIG. 1.

[5] = depressed patients; cited from earlier work
[6] = Regimen B: 20 mg, single oral dose, two 10 mg IR tablets, 23 subjects
[7] = Regimen C: 9 mg iv infusion over 6 hours, 22 subjects
[8] = Regimen D: 20 mg solution via Enterion capsule to proximal small bowel, 20 subjects
[9] = Regimen E: 20 mg solution via Enterion capsule to distal small bowel, 19 subjects

With Br.Cc1ccc(Sc2ccccc2N2CCNCC2)c(C)c1 [Compound I HBr, 1-[2-(2,4-dimethyl-phenylsulfanyl)-phenyl]piperazine hydrobromide] the Abdominal pain [1, 6] was 2 no of subjects, the Fatigue [1, 6] was 2 no of subjects and the Headache [1, 6] was 3 no of subjects. The “Lightheadedness/postural dizziness (no BP drop)” value [1, 6] was 5 no of subjects, the Nausea [1, 6] was 9 no of subjects and the Retching [1, 6] was 1 no of subjects. For the same molecule, the Vomiting [1, 6] was 2 no of subjects, the “Abnormal liver function tests” value [1, 7] was 1 no of subjects and the Headache [1, 7] was 2 no of subjects. For the same molecule, the Nausea [1, 7] was 1 no of subjects, the Postural hypotension [1, 7] was 2 no of subjects and the Abdominal pain [1, 8] was 1 no of subjects. For the same molecule, the Headache [1, 8] was 1 no of subjects, the “Lightheadedness/postural dizziness (no BP drop)” value [1, 8] was 1 no of subjects and the Nausea [1, 8] was 3 no of subjects. For the same molecule, the Postural hypotension [1, 8] was 1 no of subjects, the Pruritis [1, 8] was 1 no of subjects and the Vomiting [1, 8] was 1 no of subjects. The Abdominal pain [1, 9] was 1 no of subjects, the Nausea [1, 9] was 2 no of subjects and the Postural hypotension [1, 9] was 3 no of subjects. For the same molecule, the Rash [1, 9] was 1 no of subjects.
In the case of Cc1ccc(Sc2ccccc2N2CCNCC2)c(C)c1 [Compound I, 1-[2-(2,4-dimethyl-phenylsulfanyl)-phenyl]piperazine], the “levels of acetylcholine, norepinephrine (noradrenaline), dopamine and serotonin in brain” value [2] is given as “increase; also recorded: significant increases”, the “sleep and sexually related adverse events in depressed patients” value ([3]; clinical trials disclosed in WO 2008/113359) is given as “surprisingly low level” and the “efficacy in the treatment of major depressive disorder” value ([3]; dosed at 5 and 10 mg) is given as “efficacious”. The “safety and tolerability in first clinical trial” value ([3]; dosed at 5 and 10 mg) was “safe and well-tolerated”, the “overall number of adverse events” value ([1]; regimen B, IR tablet) was “most adverse events” and the “overall number of adverse events” value ([1]; regimen C, D and E: i.v. infusion, released in the proximal or distal small bowel) was “markedly lower number of adverse events”. The “plasma concentration-time profile, dependence on administration form” value ([4]; IR tablet versus release in the small intestine (FIG. 1, regimens B, D, E)) was “virtually independent on whether Compound I is administered in an IR tablet or released in the small intestine” and the “characteristics of plasma concentration-time profile” value ([4]; administration in an IR composition) was “relative late tmax and a plasma concentration plateau around tmax”.
In the case of Fc1ccc([C@@H]2CCNC[C@H]2COc2ccc3c(c2)OCO3)cc1 [paroxetine], the “nausea with enteric coated, sustained release tablet compared with IR tablet” value [5] is listed as “less nausea” and the “other GI related adverse events such as diarrhea, abnormal ejaculation, female genital disorders and dizziness with enteric coated tablet compared with IR tablet” value [5] is listed as “appeared to increase”.
